Reference: US20100239501A1, “GENE SENSITIVE TO BONE/JOINT DISEASE AND USE THEREOF” (RIKEN, priority 2007, published 2010)
One block for each compound: values may come before it.

How the values were obtained:
[1] = biological target: T1, EDG2 (Homo sapiens, UniProt Q92633); test: Intracellular Ca2+ concentration (FLIPR tetra) in McA-RH7777 cells stably expressing EDG2; format: cell-based; parameters: Dainippon Pharmaceutical Co., Ltd. (cells); host or cells: McA-RH7777; details: LPA 0.3 μM, Ki16425 10^−8 to 10^−5 M added previously
T1 sequence (Q92633 whole entry): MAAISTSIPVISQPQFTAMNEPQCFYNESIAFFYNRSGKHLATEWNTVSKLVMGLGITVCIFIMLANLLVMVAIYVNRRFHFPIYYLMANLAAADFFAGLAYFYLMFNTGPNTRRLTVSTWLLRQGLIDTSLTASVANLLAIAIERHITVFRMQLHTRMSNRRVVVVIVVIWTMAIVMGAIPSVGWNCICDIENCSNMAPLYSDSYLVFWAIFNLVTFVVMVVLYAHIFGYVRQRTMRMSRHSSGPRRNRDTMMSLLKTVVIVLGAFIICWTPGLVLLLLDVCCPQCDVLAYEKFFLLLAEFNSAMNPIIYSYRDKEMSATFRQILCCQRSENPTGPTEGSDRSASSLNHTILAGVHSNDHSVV
Description: A forcible expression vector comprising an ORF sequence of human EDG2 [hEDG2-pcDNA3.1(+)] was purchased from UMR cDNA Resource Center. This plasmid was introduced into McA-RH7777 (Dainippon Pharmaceutical Co., Ltd.) using Lipofectamine LTX (Invitrogen), and the cells were cultured in a medium containing Geneticin for 14 to 20 days to acquire cells that stably express EDG2.
Next, an evaluation was made using FLIPR tetra (Molecular Devices) to confirm that stimulation with LPA raised intracellular Ca concentrations via the EDG2 expressed. That is, these cells were seeded to a 384-well plate, 0.03 to 10 μM LPA (Sigma) was added to each well, and it was confirmed that rises in intracellular Ca^2+ concentration occurred. LPA dose-dependently.

[2] = biological target: T2, EDG7 (Homo sapiens, UniProt Q9UBY5); details: no test described; cited from earlier work
T2 sequence (Q9UBY5 1-353): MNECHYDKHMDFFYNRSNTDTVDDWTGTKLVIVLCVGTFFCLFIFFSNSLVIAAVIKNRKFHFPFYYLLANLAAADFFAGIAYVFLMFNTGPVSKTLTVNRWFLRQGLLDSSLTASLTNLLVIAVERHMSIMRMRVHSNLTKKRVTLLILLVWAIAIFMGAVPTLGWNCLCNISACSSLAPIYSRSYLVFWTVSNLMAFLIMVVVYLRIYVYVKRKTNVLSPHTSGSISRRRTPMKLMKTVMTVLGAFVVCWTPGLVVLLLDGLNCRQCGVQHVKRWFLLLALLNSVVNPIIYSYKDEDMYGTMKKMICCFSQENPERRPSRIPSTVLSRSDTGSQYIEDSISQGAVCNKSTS

[3] = biological target: T1, EDG2; test: IL6 gene expression in LPA-stimulated HFLS-OA treated with EDG2 antagonist; format: cell-based; parameters: OA patient-derived fibroblast-like synovial cells (HFLS-OA) were purchased from Cell application Co; host or cells: HFLS-OA (OA patient-derived fibroblast-like synovial cells); details: Ki16425 0, 0.3, 1, 3, 10 and 33 μM for 30 minutes, then 10 μM LPA, 2 hours, n=4
Description: Furthermore, the involvement of EDG2 in the LPA-induced inflammatory cytokine raising reaction in human OA synovial cells was analyzed using an antagonist against EDG2. […] As the EDG2 antagonist, Ki16425 (Sigma) was used. OA patient-derived fibroblast-like synovial cells (HFLS-OA) were purchased from Cell application Co. The HFLS-OA was cultured using the attached Synoviocyte growth medium. The number of passages for the cells used was 4 or 5. The HFLS-OA was seeded to a 24-well plate at a ratio of 1×10^5 cells/well, and cultured using the attached Synoviocyte growth medium until they became confluent. Twelve hours before performing LPA stimulation, the medium was replaced with Ham's F-12 (Invitrogen) medium containing 0.1% fatty acid free bovine serum albumin (Sigma). Twelve hours after the medium replacement, the cells were treated with Ki16425 (0, 0.3, 1, 3, 10 and 33 μM) for 30 minutes. Thereafter, the cells were stimulated with 10 μM LPA; 2 hours later, total RNA was extracted using ISOGEN (Nippon Gene), and the amount expressed of the IL6 gene was quantified by a method in accordance with Example 10 (n=4).

[4] = system: synovial cell line E11 cells; test: EDG2 gene expression in PMA-stimulated E11 cells (quantitative real-time PCR); format: cell-based, human; details: PMA 10 ng/ml, from 2 hours to 12 hours after addition, n=4
Description: To analyze the expression of the four LPA receptors examined in Example 10 in joint tissue, an expression quantitation analysis by quantitative real-time PCR was performed on articular cartilages and synovial tissues of knee OA patients. The method used was in accordance with Example 10. Total RNA was extracted from each tissue (articular cartilage n=4, synovial membrane n=3) using Isogen (Nippon Gene), and reverse transcription was performed on 500 ng of total RNA using Multiscribe reverse transcriptase (Applied biosystems) and a random hexamer, whereby a cDNA was obtained. Quantitation of the LPA receptor genes was performed using QuantiTect STBR Green PCR (Qiagen) on the ABI PRISM 7700 sequence detection system (Applied biosystems) as directed in the documentation attached. The number of copies of each gene was calculated using a working curve. The amount of each gene was standardized by being divided by the number of copies of the G3PDH gene. A Toyobo product was used as the primer for the G3PDH gene. […] The amount of the EDG2 gene expressed was higher in synovial membrane at a level about 10 times as high as in articular cartilage. […]
The method used is described below. […] In these total RNAs, the amount expressed of the EDG2 gene relative to G3PDH was measured in accordance with the method described in Example 11. […]

[5] = system: transcriptional factor AP-1; test: AP-1 cis-reporter luciferase assay in PMA-stimulated E11 cells; format: cell-based, human; details: 0.1, 1 and 10 ng/ml PMA, 24 hours after stimulation, n=2
Excerpt: Because the EDG2 gene is an LPA receptor that is dominant in OA synovial membrane, it was decided to perform a functional analysis of OA susceptibility polymorphs using synovial cells. E11 cells are a cell line established by immortalizing fibroblast-like cells from a rheumatoid arthritis patient synovial membrane with simian SV40 large T antigen (Abe et al, J Rheumatol. 1997 March; 24(3):420-9.). In the 5′-flanking region of EDG2, where i-EDG2-09 and 12 are present, an AP-1-binding motif is present. […] The method used is described below. The E11 cells were cultured using Dulbecco's Modified Eagle's Medium (DMEM, Sigma) containing 10% fetal bovine serum (FBS), antibiotics (100 U/ml penicillin G and 100 μg/ml streptomycin) and L-glutamine ([…]). On the day before the transfection, the E11 cells were seeded to a 24-multiwell plate to obtain a cell density of 5×10^4 cells/well. The following day, using Fugene-6 (Roche diagnostics), 200 ng of the reporter construct and 4 ng of pRL-TK (Promega) as the internal standard for correction of transfection efficiency, per well were transfected. Twenty-four after the transfection, the cells were cultured on a medium containing 0.1, 1 and 10 ng/ml PMA. Twenty-four hours after the stimulation, the cells were solubilized, and luciferase activity was measured using PicaGene Dual SeaPansy System (Toyo Ink). The number of cases was n=2.

[6] = system: EDG2 gene transcription activity (i-EDG2-09 region); test: i-EDG2-09 luciferase reporter assay in PMA-stimulated E11 cells; format: cell-based, human; details: both constructs (G allele and A allele), 10 ng/ml PMA, 5 hours after stimulation
Excerpt: An AP-1-binding motif described in a report by Duncliffe et al. [Immunity. […] 28; 276(52):48871-8.] is present 11 to 16 by upstream. The existence of a transcriptional factor-binding motif where AP-1 and NFAT are located in tandem is known in a plurality of genes [Macian F, Lopez-Rodriguez C and Rao A., Oncogene. 2001 Apr. 30; 20(19):2476-89. Review.]. Meanwhile, in the surrounding sequence, including i-EDG2-12, no distinct transcriptional factor binding sequence was found. […] Oligonucleotides (sense strand and antisense strand) wherein 4 bp at the restriction endonuclease NheI adhesion end is added on the 5′ side of a region centering at i-EDG2-09, and comprising the AP-1 and NFAT-binding motifs (a region at −2809 to −2839 from the transcription initiation point of EDG2), and 4 bp at the XbaI adhesion end is added on the 3′ side, were prepared for both alleles of i-EDG2-09 (G or A). After these oligonucleotides were converted to double-stranded DNAs for each allele, reporter constructs wherein each allele was integrated in tandem 5 times in the NheI site of the pGL3-promoter vector (Promega), which is a luciferase reporter vector, while retaining the orientation were prepared for G allele and A allele. […] Five hours after the stimulation, the cells were solubilized, and luciferase activity was measured using the PicaGene Dual SeaPansy System (Toyo Ink). […]

[7] = system: EDG2; test: EDG2 knockdown by siRNA in LPA-stimulated HFLS-OA; format: cell-based, human; details: n=4
Description: To analyze the involvement of EDG2 in the LPA-induced inflammatory cytokine raising reaction in human OA synovial cells, obtained in Example 17, an investigation using an siRNA was performed. The method used is described below. An siRNA against EDG2 was designed by utilizing an siRNA design support system available from the Takara Bio Web site (http://bio.takara.co.jp). Synthesis of the siRNA was outsourced to Takara Bio. The control siRNA used was such that the sequence of an siRNA against asporin was scrambled. OA patient-derived fibroblast-like synovial cells (HFLS-OA) were purchased from Cell application Co. The HFLS-OA was cultured using the attached Synoviocyte growth medium. The number of passages for the cells used was 4 or 5. The HFLS-OA was seeded to a 24-well plate at a ratio of 1×10^5 cells/well, and cultured using the attached Synoviocyte growth medium. The following day, the siRNA against EDG2 was introduced into the HFLS-OA to obtain a final concentration of 11 nM, using the Trans-IT-TKO transfection regent (Mirus Co.), according to the attached protocol. […] Twelve hours after the medium replacement, the cells were stimulated with 10 μM LPA; 2 hours later, total RNA was extracted using ISOGEN (Nippon Gene), and the amount of the IL6 gene expressed was quantified by a method in accordance with Example 10 (n=4).

- suppression of elevation of intracellular Ca2+ concentration by LPA stimulation [1]: suppressed dose-dependently
- suppression of the rise in the expression of the IL6 gene by LPA [3]: dose-dependently
Compound: Cc1noc(-c2ccc(CSCCC(=O)O)cc2)c1NC(=O)OC(C)c1ccccc1Cl (centres unmarked) [Ki16425]
- antagonist activity against EDG7 [2]: antagonist activity

Compound: CCCCCCCCCCCCCC(=O)O[C@@H]1[C@@H](C)[C@@]2(O)[C@@H](C=C(CO)C[C@]3(O)C(=O)C(C)=C[C@@H]23)[C@@H]2C(C)(C)[C@]12OC(C)=O [PMA, phorbol 12-myristate 13-acetate]
- amount expressed of the EDG2 gene relative to G3PDH [4]: rose over time
- luciferase activity (AP-1 binding motif reporter) [5]: rose PMA dose-dependently
- luciferase activity of i-EDG2-09 reporter constructs [6]: rose significantly

Compound: siRNA against EDG2: siRNA used in EDG2 knockdown; sense GAAAUGAGCGCCACCUUUATT (SEQ ID NO 40), antisense UAAAGGUGGCGCUCAUUUCTT (SEQ ID NO 41) (chemistry not given here)
- amount expressed of the IL6 gene, which rises in response to LPA ([7]; siRNA 11 nM, 10 μM LPA, 2 hours): significantly suppressed
- amount of EDG2 expressed ([7]; siRNA final concentration 11 nM): significantly suppressed
